Results published in patent US20110071403A1, “FUNCTIONAL NEAR-INFRARED FLUORESCENCE LYMPHATIC MAPPING FOR DIAGNOSING, ACCESSING, MONITORING AND DIRECTING THERAPY OF LYMPHATIC DISORDERS” (BOARD OF REGENTS OF THE UNIVERSITY OF TEXAS SYSTEM, priority 2009, published 2011).
Where a SMILES comes first, the peptide text is derived from it. Bridges are numbered along the chain shown (N, C = ends). Where no end group is shown, it is not given here. The star is where a group is joined. IRDye800CW = CC1(C)C(/C=C/C2=C(Oc3ccc(S(=O)(=O)O)cc3)C(=C/C=C3/N(CCCCS(=O)(=O)O)c4ccc(S(=O)(=O)O)cc4C3(C)C)/CCC2)=[N+](CCCCCC(=O)*)c2ccc(S(=O)(=O)[O-])cc21; IRDye800 = IRDye800 fluorophore

How the values were obtained:
mouse serum albumin [1] = target: mouse serum albumin (Mus musculus, UniProt P07724); settings: read-out: IC-50 of unconjugated ABD peptide for albumin; as reported by Dennis et al., 2002; cited from earlier work
inguinal lymph node = assay: lymphatic clearance study, fluorescence intensity in inguinal lymph node over time
Protocol: (§2) Animal studies were conducted using shaved 6-7 week old female, C57BL/6 mice (Harlan, Charles River). […] Each mouse was injected intradermally at the base of the tail with 20 μL of 500 uM ICG or 20 μL of 100 μM dye for IRDye800, IRDy800-MSA and IRDye800-ABD in order to assess their performance in vivo. The injections were all made by the same investigator and the site was covered with sterile tape immediately prior to imaging to prevent camera saturation.
Animals were illuminated by a laser diode (100 mA, 80 mW for 785 nm, Sanyo; Richmond, Ind.) with the light source expanded to a circular area approximately 8 cm in diameter. Fluorescence emission was collected using an Electron Multiplying Charge Coupled Device (EMCCD) camera with a holographic notch-plus band-rejection filter (785-nm center wavelength for ICG) and a bandpass filter (830-nm center wavelength for ICG) placed prior to the lens to reject back-scattered and reflected excitation light. Fluorescence images were acquired with an integration time of 200 ms. […] Statistical analyses of differences in fluorescent intensity were assessed by student t-test in which α=0.05. […] Images were processed using V++ software (Digital Optics; Auckland, New Zealand), and data was analyzed to determine in vivo fluorescent intensities in select regions of interest (ROI) using IMAGEJ (NIH, Bethesda, Md.) and MATLAB (The Mathworks). […]

[2] = optical characterization of NIR imaging agents (spectra, extinction coefficient, quantum yield, lifetime, relative brightness); type: physicochemical; settings: for Emission maximum / Excitation maximum: 1 μM solution; for Extinction Coefficient × 10^4: at 785 nm; for Lifetime: frequency domain method, 785/830 (ex/em), ICG as standard
Protocol: Fluorescence quantum yield was determined by the comparative method of Williams et al. 1983 (Williams, Winfield and Miller. Analyst 109, 1067, 1983) using the quantum yield of ICG (in water) at 785/830 nm (24) as a standard. Lifetime measurements were obtained using the frequency domain-method using ICG as a standard. The IC50 of IRDye800-ABD was determined using a competitive binding assay modified from Dennis et al. 2002 (ibid). Briefly, MAXISORP fluorescent plates (Nunc, Rochester, N.Y.) were coated with mouse serum albumin (Sigma St Louis, Mo.) and incubated overnight at 4 degrees. Plates were washed three times with PBS+0.05% Tween20 (Sigma St. Louis, Mo.) to remove unbound albumin and were then blocked with TBS in casein (Pierce Rockford, Ill.) for 1 hour at 25 degrees. Equal volumes of unlabeled and labeled peptide were combined in centrifuge tubes for five different concentrations (0.05-10 nM) of unlabeled ABD peptide. The resulting peptide solution was then plated on the albumin coated plate, covered, and incubated for 1-2 hours at 37 degrees. The plate was washed with PBS+0.05% Tween20 three times to remove unbound peptide and fluorescence was measured using the ODYSSEY fluorescent plate reader (LI-COR, Lincoln, Nebr.). The average and standard deviation of four IC-50 values were determined.
In addition, Table 1 lists the relative brightness of each compound relative to ICG which was computed by taking the ratio of ((extinction coefficient)×(quantum yield))/((extinction coefficient of ICG)×(quantum yield of ICG)). […] Spectra for ICG and the IRDye800 conjugates were determined.

[3] = taken up by the liver and secreted into the bile; cited from earlier work
[4] = system: lymphatics of arms and legs; assay: second human study: NIR fluorescence lymphatic imaging with intradermal ICG pre- and post-MLD, apparent lymph velocity and propulsion period; settings: intradermal ICG up to 400 μg; vitals 2 h, follow-up calls 24 and 48 h
From the text: Twelve normal volunteers and 10 subjects clinically diagnosed with Grade I or II unilateral LE participated and provided informed consent. […] The control subjects consisted of 2 males and 10 females, aged 22-59 years. The LE subjects were all female, aged 18-68 years with half experiencing lower extremity LE and the other half upper extremity LE. The injection sites were cleaned with a surgical scrub, followed by alcohol. Immediately after intradermal injection of imaging contrast agent using a 27 gauge needle, NIR fluorescence images were simultaneously acquired from both the LE and contralateral limbs of LE subjects. For control subjects, bilateral arms were imaged simultaneously in 6 subjects, and bilateral legs were imaged in the other 6 subjects. MLD was performed 30 to 60 minutes after the start of imaging followed by another 30 to 60 minutes of imaging. Vital signs were monitored for 2 hours after fluorescent agent administration and follow-up phone calls to assess subjects' condition were made 24 and 48 hours later. […]
The location and movement of lymphatic fluid containing ICG was imaged simultaneously in both limbs using two custom-built fluorescence imaging systems.

[5] = cited from earlier work
[6] = system: lymphatics of arms and legs; assay: first human study: NIR fluorescence lymphatic imaging with intradermal ICG, apparent lymph velocity and propulsion period in control and lymphedema subjects; settings: intradermal ICG up to 400 μg; vitals 2 h, follow-up calls 24 and 48 h
[7] = system: lymphatic vessels and nodes; assay: in vivo lymphatic imaging, dose escalation after intradermal injection at base of tail; set-up: species or system C57BL/6 mice
Protocol: as §2
Animals were illuminated by a laser diode (100 mA, 80 mW for 785 nm, Sanyo; Richmond, Ind.) with the light source expanded to a circular area approximately 8 cm in diameter. Fluorescence emission was collected using an Electron Multiplying Charge Coupled Device (EMCCD) camera with a holographic notch-plus band-rejection filter (785-nm center wavelength for ICG) and a bandpass filter (830-nm center wavelength for ICG) placed prior to the lens to reject back-scattered and reflected excitation light. Fluorescence images were acquired with an integration time of 200 ms. For registration purposes, “white light” images were taken by removing the filters and acquiring images over 500 ms integration time. Up to 750 fluorescent images and 3 white light images were acquired immediately after injection on the left and right side of each animal. Statistical analyses of differences in fluorescent intensity were assessed by student t-test in which α=0.05. […] Images were processed using V++ software (Digital Optics; Auckland, New Zealand), and data was analyzed to determine in vivo fluorescent intensities in select regions of interest (ROI) using IMAGEJ (NIH, Bethesda, Md.) and MATLAB (The Mathworks). Statistical analysis was conducted using the student t-test with α=0.05.
In viva lymphatic imaging studies utilizing an escalating dose of IC was done.

lymphangiogenesis (α9β1) [8] = assay: […] plug (with/without HGF) mouse model of lymphangiogenesis, NIR fluorescence imaging; type: in vivo; settings: 24 hours after intradermal administration
Protocol: FIG. 20: NIR fluorescent image of an animal model of lymphangiogenesis (top) with a […] plug impregnated with LEC stimulating factor HGF on the right with a control […] plug without HGF on the left. The animal image (top) is taken 24 hours after administration of IRDye800-[…] (SEQ ID NO: 2) showing agent uptake into the […] plug containing LEC stimulating factor HGF and little or no uptake into the […] plug without HGF. When the […] plugs were removed from the animal and imaged, they were then imaged for the presence of IRDye800-[…] (SEQ ID NO: 2).
(§1) This targeting approach can be used to detect the process of lymphangiogenesis in animal models in, for example, drug discovery programs focusing on cessation of tumor lymphangiogenesis (such is associated with cancer metastasis), or as a diagnostic to detect the lymphangiogenesis that occurs in metastatic cancer and other tymphovascular disorders. […] The induced lymphangiogenesis is clearly visualized by the increase in fluorescence 24 hours through […] after the administration of imaging conjugate, IRDye800-[…] […] (SEQ ID NO: 2) was injected intravenously and 24 hours later, NIR fluorescence imaging was conducted to assess increased update associated with those tissues that were the site of Oxazolone application and increased lymphatic vessel densities that are indicative of lymphangiogenesis.

lymphangiogenesis (α9β1) [9] = assay: Oxazolone-induced skin inflammation mouse model, NIR fluorescence imaging; type: in vivo; settings: 24 hours after intravenous injection, right inflamed vs left untreated side
Protocol: The NIR imaging was conducted with intradermal administration of ICG (as shown above in human studies) to image both the right and left side lymphatics. […] Increased vessel density, leakiness, and dilated vessels on the inflamed side as compared to the untreated side of the animal as evident from the lymphatic imaging as compared to the left, untreated side.
The right side of the animal which has greater lymphatic density as indicated by ICG imaging (as shown in FIG. 21) is also associated with increased IRDye800-[…] (SEQ ID NO: 2) fluorescence presumably owing to the stimulation of LECS in the process of lymphangiogenesis to produce α9β1 integrin.
This targeting approach can be used to detect the process of lymphangiogenesis in animal models in, for example, drug discovery programs focusing on cessation of tumor lymphangiogenesis (such is associated with cancer metastasis), or as a diagnostic to detect the lymphangiogenesis that occurs in metastatic cancer and other tymphovascular disorders. Lymphangiogenesis and the accompanying activation of LECS are known to be stimulated by vascular endothelial growth factor-C (VEGF-C) or hepatic growth factor (HGF). […] The induced lymphangiogenesis is clearly visualized by the increase in fluorescence 24 hours through […] after the administration of imaging conjugate, IRDye800-[…] […]

integrin α9β1 on LECs = target: T1, integrin α9β1 on LECs (Homo sapiens, UniProt P05556+Q13797); assay: fluorescence microscopy of LECs stimulated by VEGF-C; type: cell-based
T1 construct: LECS stimulated by VEGF-C to express α9β1 on the extracellular membrane; endogenous in cells; host or cells: lymphatic endothelial cells (LECs) incubated with VEGF-C
From the text: FIG. 19: Fluorescence microscopy of LECS stimulated by VEGF-C to express α9β1 on the extracellular membrane as stained by (from left to right, top) by (i) DAPI, a nuclear stain, (ii) IRDye800-[…] (SEQ ID NO: 2), the imaging conjugate that targets α9β1, and (iii) a fluorescently labeled antibody that targets the β1 portion of α9β1.
as §1, with “disorders. Lymphangiogenesis and the accompanying activation of LECS are known to be stimulated by vascular endothelial growth factor-C (VEGF-C) or hepatic growth factor (HGF). […] When VEGF-C is not present during incubation, α9β1 (over) expression and IRDye800-[…]” for “disorders.”

mouse serum albumin [10] = target: T2, mouse serum albumin (mouse, UniProt P07724 25-608); assay: competitive binding assay on plates coated with mouse serum albumin; unlabeled ABD peptide at 0.05-10 nM mixed with labeled peptide, fluorescence read-out; mean and SD of four IC-50 values
T2 construct: Bought protein; also called MSA

T1 sequence (Q13797 30-1035): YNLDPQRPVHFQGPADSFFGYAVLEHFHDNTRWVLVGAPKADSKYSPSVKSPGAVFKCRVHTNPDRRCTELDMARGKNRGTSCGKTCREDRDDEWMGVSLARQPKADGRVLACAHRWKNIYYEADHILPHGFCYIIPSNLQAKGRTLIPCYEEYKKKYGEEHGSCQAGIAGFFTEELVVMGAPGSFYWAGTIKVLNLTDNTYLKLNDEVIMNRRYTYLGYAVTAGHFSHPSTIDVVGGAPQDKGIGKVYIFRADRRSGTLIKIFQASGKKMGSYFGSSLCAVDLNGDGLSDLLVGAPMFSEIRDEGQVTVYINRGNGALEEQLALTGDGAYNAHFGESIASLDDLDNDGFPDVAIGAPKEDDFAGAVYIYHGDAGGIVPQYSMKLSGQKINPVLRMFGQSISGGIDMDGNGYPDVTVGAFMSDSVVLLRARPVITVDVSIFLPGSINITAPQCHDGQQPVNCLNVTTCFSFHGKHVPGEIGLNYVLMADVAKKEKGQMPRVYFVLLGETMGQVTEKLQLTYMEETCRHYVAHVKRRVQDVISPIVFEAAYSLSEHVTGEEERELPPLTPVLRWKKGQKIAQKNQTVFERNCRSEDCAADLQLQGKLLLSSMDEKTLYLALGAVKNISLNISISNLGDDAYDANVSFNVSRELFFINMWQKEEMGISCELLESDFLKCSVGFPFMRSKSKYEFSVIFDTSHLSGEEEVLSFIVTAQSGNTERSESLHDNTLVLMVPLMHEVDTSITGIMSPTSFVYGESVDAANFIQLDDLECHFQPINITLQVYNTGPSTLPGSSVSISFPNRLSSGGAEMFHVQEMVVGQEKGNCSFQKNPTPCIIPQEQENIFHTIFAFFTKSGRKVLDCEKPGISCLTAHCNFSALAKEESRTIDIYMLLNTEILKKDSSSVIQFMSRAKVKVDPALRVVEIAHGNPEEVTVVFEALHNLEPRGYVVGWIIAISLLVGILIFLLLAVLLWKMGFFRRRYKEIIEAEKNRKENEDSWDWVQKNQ
T1 sequence (P05556 21-798): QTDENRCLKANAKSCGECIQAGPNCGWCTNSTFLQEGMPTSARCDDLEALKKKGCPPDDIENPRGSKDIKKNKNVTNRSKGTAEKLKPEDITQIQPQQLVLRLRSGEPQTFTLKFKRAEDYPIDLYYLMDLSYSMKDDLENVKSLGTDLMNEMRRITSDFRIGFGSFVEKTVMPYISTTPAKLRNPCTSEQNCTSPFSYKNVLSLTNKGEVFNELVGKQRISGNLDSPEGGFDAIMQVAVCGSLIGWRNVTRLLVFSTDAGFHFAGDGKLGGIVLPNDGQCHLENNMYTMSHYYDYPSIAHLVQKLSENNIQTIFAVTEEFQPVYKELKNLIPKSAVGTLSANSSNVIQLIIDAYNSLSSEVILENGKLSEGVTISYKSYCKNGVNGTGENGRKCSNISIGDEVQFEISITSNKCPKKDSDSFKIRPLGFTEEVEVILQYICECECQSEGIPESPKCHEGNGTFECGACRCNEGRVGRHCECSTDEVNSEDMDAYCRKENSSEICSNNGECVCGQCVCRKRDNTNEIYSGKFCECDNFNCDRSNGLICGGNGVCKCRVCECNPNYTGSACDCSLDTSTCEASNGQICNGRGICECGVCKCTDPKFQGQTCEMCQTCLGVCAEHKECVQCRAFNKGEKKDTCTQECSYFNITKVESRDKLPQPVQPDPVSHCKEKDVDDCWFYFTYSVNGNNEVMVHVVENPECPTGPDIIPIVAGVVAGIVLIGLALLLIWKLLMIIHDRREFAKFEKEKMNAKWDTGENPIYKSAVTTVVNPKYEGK
mouse serum albumin (Mus musculus, UniProt P07724), sequence (P07724 25-608): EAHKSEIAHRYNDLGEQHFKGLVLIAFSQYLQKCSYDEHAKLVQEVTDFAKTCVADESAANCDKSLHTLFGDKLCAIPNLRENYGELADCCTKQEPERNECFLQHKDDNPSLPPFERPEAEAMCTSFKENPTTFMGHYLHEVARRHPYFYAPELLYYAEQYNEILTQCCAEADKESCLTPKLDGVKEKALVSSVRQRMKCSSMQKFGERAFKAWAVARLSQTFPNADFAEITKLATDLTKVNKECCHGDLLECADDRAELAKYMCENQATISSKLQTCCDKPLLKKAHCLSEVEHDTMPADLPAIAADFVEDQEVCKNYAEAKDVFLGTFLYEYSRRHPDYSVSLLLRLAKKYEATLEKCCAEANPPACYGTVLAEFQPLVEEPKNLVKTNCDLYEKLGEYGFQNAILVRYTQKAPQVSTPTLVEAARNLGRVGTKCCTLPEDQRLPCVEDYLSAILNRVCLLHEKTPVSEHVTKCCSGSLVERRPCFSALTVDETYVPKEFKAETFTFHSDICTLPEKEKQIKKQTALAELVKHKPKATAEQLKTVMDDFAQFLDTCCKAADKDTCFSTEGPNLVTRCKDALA

Q: Which IC50 (mouse serum albumin [1]) does the source give for RLIEDICLPRWGCLWEDD [ABD peptide] here?
A: The IC50 was 5 nM.

Q: Which results are given for `CC[C@H](C)[C@H](NC(=O)[C@H](CC(C)C)NC(=O)[C@H](CCCNC(=N)N)NC(=O)CCCCCN1C(=CC=C2CCCC(C=CC3=[N+](CCCCS(=O)(=O)[O-])c4ccc(S(=O)(=O)O)cc4C3(C)C)=C2Oc2ccc(S(=O)(=O)O)cc2)C(C)(C)c2cc(S(=O)(=O)O)ccc21)C(=O)N[C@@H](CCC(=O)O)C(=O)N[C@@H](CC(=O)O)C(=O)N[C@H](C(=O)N[C@H]1CSSC[C@@H](C(=O)N[C@@H](CC(C)C)C(=O)N[C@@H](Cc2c[nH]c3ccccc23)C(=O)N[C@@H](CCC(=O)O)C(=O)N[C@@H](CC(=O)O)C(=O)N[C@@H](CC(=O)O)C(=O)O)NC(=O)CNC(=O)[C@H](Cc2c[nH]c3ccccc23)NC(=O)[C@H](CCCNC(=N)N)NC(=O)[C@@H]2CCCN2C(=O)[C@H](CC(C)C)NC1=O)[C@@H](C)CC` [IRDye800-ABD] (IRDye800CW-RLIEDICLPRWGCLWEDD-OH; disulfide 7-13; N-terminus and C-terminus assumed)?
A: lymphatic clearance from inguinal lymph node (inguinal lymph node; 0.5 to 50 min after injection): slowed clearance; fluorescence intensity in inguinal node, initially (inguinal lymph node; initial time after intradermal injection): started out with a lower intensity; Emission maximum [2]: 803; Excitation maximum [2]: 780; Intensity relative to ICG ([2]; (extinction coefficient × quantum yield) ratio to ICG): 25.9; Quantum Yield ([2]; at 785/830 (ex/em), comparative method with ICG as standard): 0.0647 +/− 0.0007; Extinction Coefficient × 10^4 [2]: 54.836 +/− 0.25; Lifetime [2]: 0.92 +/− 0.057

Q: Which results are given for `CC1(C)C(/C=C/C=C/C=C/C=C2\N(CCCCS(=O)(=O)O)c3ccc4ccccc4c3C2(C)C)=[N+](CCCCS(=O)(=O)[O-])c2ccc3ccccc3c21` [ICG, indocyanine green]?
A: normal biological half-time [3]: 2-4 min; adverse events associated with the imaging agent [4]: No adverse events; Emission maximum [2]: 799; Excitation maximum [2]: 785; Extinction Coefficient × 10^4 [2]: 8.60 +/− 0.35; Lifetime [2]: 0.59 +/− 0.049; Quantum Yield (ICG standard) ([5]; ICG in water at 785/830 nm, used as standard): 0.016; maximal absorption ([5]; background statement): 780 nm; adverse events associated with the drug [6]: No adverse events; concentration sufficient to clearly depict lymphatic architecture in vivo ([7]; 20 μL intradermal at base of tail, mice): 500 µM; appearance of lymphatic vasculature ([7]; ICG at 500 μM): brighter and more prominent; appearance of lymphatic vessels and nodes ([7]; ICG at 20 and 100 uM): dim and difficult to discern

Q: What does the source list for “IRDye800-GGGPLAEIDGIELTY: IRDye800 conjugated to tenascin C derived integrin α9β1 binding peptide GGGPLAEIDGIELTY (SEQ ID NO: 2)”?
A: fluorescence of control MATRIGEL plug with no HGF (lymphangiogenesis (α9β1) [8]): did not show appreciable fluorescence; fluorescence of resected MATRIGEL plug with HGF (lymphangiogenesis (α9β1) [8]): showed fluorescence; fluorescence in region of Oxazolone skin inflammation (lymphangiogenesis (α9β1) [9]): increased fluorescence; binding to LECs incubated in VEGF-C (integrin α9β1 on LECs; VEGF-C for 30 minutes, co-stain with antibody to β1): co-localized with the antibody to β1; binding to LECs without VEGF-C (integrin α9β1 on LECs; VEGF-C not present during incubation): not seen

B1: IRDye800-ABD (albumin binding domain peptide RLIEDICLPRWGCLWEDD conjugated to IRDye800CW) (peptide)
peptide: RLIEDICLPRWGCLWEDD
modifications: cysteine pairing not given here; also: IRDye800CW label attached via NHS ester, site not given here
notes: Made by adding a 1.75 times molar excess of IRDye800CW to the ABD peptide, then HPLC purified; also called IRDye800-ABD conjugate; ABD-IRDye800 conjugate
Q: For B1, which IC50 (mouse serum albumin [10]) is on record?
A: Its IC50 is 1.19 nM.
